The values that follow come from PubChem BioAssay (NCI).

What all share (assay): NCI tumour cell line growth inhibition, 48 h
The test system of experiment [1] is U251 CNS.
Experiment [2] has as its system SK-MEL-2 melanoma.
In experiment [3] the test system is OVCAR-3 ovarian.
The test system of experiment [4] is SN12C renal.
The test system of experiment [5] is UACC-62 melanoma.
Experiment [6] relates to LOX IMVI melanoma.
Experiment [7] concerns A549 NSCLC.
In experiment [8] the test system is CAKI-1 renal.
The test system of experiment [9] is UO-31 renal.
Experiment [10] deals with T-47D breast.

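Results reflect a 48-hour exposure of cells in 96-well plates to compound at five concentrations. At the TGI there is no net growth.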 Where only a bound is given, the exact number is not on record here.

`CCCCOCc1cc(CN2CCN(C)CC2)c(O)c2ncccc12`: the TGI in [1] is 44.4 µM; in experiment [2] it was above 100 µM; in [3], above 100 µM; in experiment [4], above 100 µM; in [5] it was 40.6 µM; in experiment [6] it was above 100 µM. The TGI in experiment [7] was above 100 µM; in [8] it was above 100 µM; in experiment [9], 55.8 µM.
As for `O=C(CC(=O)N1N=C(N(c2ccccc2)c2ccccc2)CC1c1ccccc1)Nc1ccc(Cl)cc1` (stereo not drawn), the TGI in experiment [1], in [2], in experiment [3], in experiment [4], in experiment [5] and in experiment [7] was above 100 µM in each case. Besides, the TGI in experiment [8], in experiment [9] and in experiment [10] was above 100 µM in each case.
Regarding `CCN(CC)c1ccc2cc(-c3nnc(-c4ccccc4O)o3)c(=O)oc2c1`, the TGI in experiment [1] turned out to be 21 µM; in experiment [2] it was 30.2 µM; in [3], 21.1 µM; in [5], 23.4 µM; in experiment [6], 20.1 µM; in [7], 29.1 µM. The results for the TGI in experiment [8] and in [9] were 25.3 µM and 22.7 µM, respectively.
With `COc1cc(Nc2nnc3n2S(=O)(=O)c2cc(C)c(Cl)cc2S3)cc(OC)c1`, the TGI in experiment [1] is 29.2 µM; in experiment [3], 28.2 µM; in experiment [4] it was above 100 µM; in experiment [5] it was 57.6 µM; in experiment [7] it was 30 µM; in experiment [8], 79 µM. Also, the TGI in [9] is above 100 µM; in experiment [10], 44.5 µM.
As to `N#Cc1nc(-c2ccccn2)oc1N`, the TGI in [1], in experiment [2], in experiment [3], in experiment [4], in experiment [5] and in experiment [6] was above 100 µM throughout. The TGI in experiment [8] and in experiment [9] was above 100 µM each time.
In the case of `COC(=O)[C@@H](Cc1ccccc1)N1O[C@]12CCCC[C@@H]2NC(=O)OC(C)(C)C` (stereo partly drawn), the TGI in [1] was 77.9 µM; in experiment [2], 49 µM; in experiment [3], 57.1 µM; in [4], above 100 µM; in experiment [5], 48.7 µM; in experiment [7], above 100 µM. Moreover, the TGI in [8] was 90.4 µM; in [9] it was 27.5 µM; in [10] it was 62.4 µM.
Consider `COc1cc([C@@]23OC[C@@H]4[C@@H](OC[C@@H]42)c2cc4c(cc23)OCO4)cc(OC)c1OC`, for which the TGI is above 74.5 µM in experiment [1]; 62.8 µM in experiment [2]; above 100 µM in experiment [5]; above 100 µM in experiment [7]; above 100 µM in [8]; above 100 µM in experiment [9]. This compound yielded a TGI in [10] above 100 µM.
On to `COC(=O)C1=CN(C2CCCCC2)C2(c3ccccc3)c3ccccc3C(=O)OC(=O)C12` (stereo not drawn), for which the TGI in [1], in experiment [2], in experiment [3], in experiment [4], in experiment [6] and in experiment [7] was above 100 µM throughout. For the same compound, the TGI in [8] and in experiment [9] was above 100 µM each time.
As for `[O-][N+]1=NC(c2ccccc2)=C1c1ccccc1`, the TGI in [1], in experiment [2], in experiment [3], in experiment [4], in [5] and in [6] was above 50 µM in each case. Also, the TGI in [7], in experiment [8] and in experiment [9] was above 50 µM each time.
Turning to `N#Cc1c(O)cc(=O)n2c1[nH]c1ccccc12`, the TGI in [1], in experiment [2], in experiment [3], in experiment [4], in experiment [5] and in [7] was above 100 µM throughout. The TGI in experiment [8] and in experiment [9] was above 100 µM throughout.
For `CC1(C)OCC([C@H]2CC23SCCCS3)O1` (stereo partly drawn), the TGI in [1], in experiment [2], in experiment [4], in [5], in [7] and in experiment [8] was above 100 µM throughout. The TGI in experiment [9] was above 100 µM.
On to `COc1cc(S(=O)(=O)Nc2ccc(-c3csc(N4C(=O)C(Cl)C4c4ccccc4)n3)cc2)ccc1Cl` (stereo not drawn), for which the TGI in [2] was above 100 µM; in experiment [3], above 100 µM; in experiment [4] it was 94 µM; in experiment [5], 51.2 µM; in [7], above 100 µM; in experiment [8], above 100 µM. Besides, the figures for the TGI in experiment [9] and in experiment [10] were 63.1 µM and 77.1 µM, respectively.
Turning to `Nc1nc2ccc(OCC(O)CN3CCCCC3)cc2[n+]([O-])n1` (stereo not drawn), the TGI in [1], in experiment [2], in experiment [3], in experiment [4], in [7] and in [8] was above 100 µM in each case. Further, the TGI in experiment [9] is above 100 µM.
Turning to `C=CC(Br)(CBr)CCC(Br)C(C)(C)Cl` (stereo not drawn), the TGI worked out at 2.92 µM in experiment [1]; 29.5 µM in [2]; 5.25 µM in experiment [3]; 16.5 µM in experiment [4]; 17.3 µM in [5]; 28.6 µM in experiment [7]. Moreover, the TGI stood at 3.97 µM in [9] and 3.95 µM in experiment [10].
Turning to `Cc1cc(=O)[nH]c(NNC(C#N)c2c(O)ccc3ccccc23)n1` (stereo not drawn), the TGI in experiment [1] was 43.3 µM; in experiment [2], 27.8 µM; in [3], 43.1 µM; in experiment [4], 38.2 µM; in experiment [5], 10.1 µM; in experiment [6] it was 22.4 µM. Besides, the TGI in [7] is 18.5 µM; in [8], 22 µM; in [9] it was 9.92 µM.
For `CC1(S)CC2C(CC1Sc1ccccc1)C2(C)C` (stereo not drawn), the TGI in experiment [1], in experiment [2], in [3], in [4], in experiment [7] and in [9] was above 100 µM each time.
